Assay results taken from patent US7235577B1 (priority 2000, dated 2007).
Where two headings read alike, the source gives them in different places.

Assays:
CYP3A4 = CYP3A4 (Homo sapiens, UniProt P08684); assay: in vitro; settings: human
Protocol: The test substances shown in Table 8 were evaluated for their inhibitory effect on the catalytic activity of human cytochrome P450 enzyme. Cytochrome P450 3A4 (CYP3A4) is involved in many drug-drug interactions and in many other pathways in the body including the catabolism of steroids and xenobiotics. Inhibition of this enzyme was measured in 96 well plates with 7-benzyloxy-4-trifluoro-methylcoumarin (BFC) as the substrate and cDNA-derived enzymes in microsomes prepared from baculovirus-infected insect cells.
The inhibition study consisted of the determination of inhibition by the test substance on CYP3A4 catalytic activity. […] The compounds were prepared as 10 mM stock solutions in acetonitrile. Metabolism of the model substrate was assayed by the production of 7-hydroxy-4-trifluoromethylcoumarin metabolite. The metabolite was detected by fluorescence.
Table 10 below provides a list of the name of enzymes examined, the catalog number of the microsomes used as a source of the enzyme, the concentration of the model substrate used, the amount of enzyme used, the final buffer concentration, and the positive control compound.
Assays were conducted in 96 well microtiter plates. The BFC substrate was initially prepared in acetonitrile. […] Six wells were used for one test. […] For the positive controls, 12 wells in a row were used for one test. The positive control inhibitor/enzyme combination was examined in duplicate rows. Wells 1 to 8 contained serial 1:3 dilutions of the inhibitors. The highest inhibitor concentration were as described in the table above. Wells 9 and 10 contained no inhibitor and wells 11 and 12 were blanks for background fluorescence (stop solution added before the enzyme).
After buffer, cofactors and inhibitor addition, the plates were pre-warmed to 37° C. Incubations were initiated by the addition of pre-warmed enzyme and substrate. The final cofactor concentrations were 1.3 mM NADP, 3.3 mM glucose-6-phosphate and 0.4 U/ml glucose-6-phosphate dehydrogenase. The final incubation volume was 0.2 ml. Incubations were carried out for 30 minutes [CYP3A4 (BFC)] and stopped by the addition of 0.075 ml of 80% acetonitrile-20% 0.5M Tris. Fluorescence per well was measured using a BMG FLUOstar fluorescence plate reader. The BFC metabolite 7-hydroxy-4-trifluoromethyl-coumarin was measured using an excitation wavelength of 410 nm and emission wavelength of 538 nm.

[1] = Hydrolytic stability by HPLC; settings: pH 5.0, 37° C.
Protocol: A Waters 590 liquid chromatograph with a Waters 746 integrator and a Waters 486 UVN is detector, and a 25 cm Lichrospher RP18 column (5-μM particle size) was used. The mobile phase consisted of K2HPO4 25 mM, KH2PO4 30 mM, methanol at 262:13:725. The chromatographic separation was performed at 20° C. with a flow rate of 1.0 ml/min, the absorbance of the elluent was monitored at 210 nm.
Hydrolysis profiles (10 μM compound with 20% acetonitrile) were carried out in Soerensen phosphate buffer (pH 7.4 and pH 5.0) in a total volume of 10 ml. 100 μl samples were collected 0, 1, 2, 3, 4, 5, 24, 48 and 72 hours after incubation, with shaking, in a waterbath at 37° C. and manually injected into the HPLC over Rheodyne 7125 system. For profiles at pH 1.0 artificial stomach fluid (DAB 9), containing 2 g NaCl, 3,2 g pepsin and 80 ml 1 M HCL in 1.0 L of water was used. After 0, 1 and 2 hours 400 μl of sample were collected and extracted three times with 500 μl of ethyl ether by vortexing. The combined extracts were than evaporated to dryness by passing nitrogen through the solution. The residue was than dissolved in 400 μl of mobile phase of which […] were injected in the HPLC.

COS-7 chloride channel = assay: Selectivity patch clamp, native chloride channels in COS-7 cells; type: cell-based, African green monkey; settings: native chloride channel of COS-7 cells
Protocol: (§1) Electrophysiological experiments were carried out in the whole-cell configuration of the patch-clamp technique using an EPC-9 amplifier (HEKA Elektronik, Lambrecht Germany) interfaced to a computer running acquisition and analysis software (Pulse and Pulsfit; HEKA Elektronik). Pipettes were pulled from soft glass capillaries, coated with Sylgard (Dow-Corning, Midland, Mich.), and fire polished to resistances of 2.0–4.5 MΩ measured in the bath. COS-7 cells were trypsinized and plated on glass coverslips 3 h before measurement. […] To prevent activation of the native chloride channels in COS-7 cells an aspartate Ringer solution was used as an external solution (160 mM Na^+ aspartate, 4.5 mM KCl, 2 mM CaCl2, 1 mM MgCl2, 5 mM HEPES, adjusted to pH 7.4 with NaOH, with an osmolarity of 290–310 mosM). 200 ms voltage ramps from −120 mV to 40 mV every 10 s were used. The holding potential in all experiments was −80 mV. Series resistance compensation was not employed. The reduction of slope conductance at −80 mV was used to determine the Kd-value by fitting the values to the Hill equation with a Hill coefficient of unity.
Recordings from the Jurkat SKCa channel were made in K^+ aspartate Ringer (Na^+ was replaced by K^+) with the same internal pipette solution. […]

human IKCa1 channel = human IKCa1 channel (Homo sapiens, UniProt O15554); assay: cell-based; settings: for IKCa1 inhibition compared with clotrimazole: refers to TABLE 8
Protocol: COS-7 cells, maintained in Dulbecco's modified Eagle's medium (DMEM) containing 10% heat-inactivated fetal calf serum, 4 mM L-glutamine and 1 mM Na^+ pyruvate, were transiently transfected with hlKCa1.
as §1

Sequence of CYP3A4 (P08684 whole entry): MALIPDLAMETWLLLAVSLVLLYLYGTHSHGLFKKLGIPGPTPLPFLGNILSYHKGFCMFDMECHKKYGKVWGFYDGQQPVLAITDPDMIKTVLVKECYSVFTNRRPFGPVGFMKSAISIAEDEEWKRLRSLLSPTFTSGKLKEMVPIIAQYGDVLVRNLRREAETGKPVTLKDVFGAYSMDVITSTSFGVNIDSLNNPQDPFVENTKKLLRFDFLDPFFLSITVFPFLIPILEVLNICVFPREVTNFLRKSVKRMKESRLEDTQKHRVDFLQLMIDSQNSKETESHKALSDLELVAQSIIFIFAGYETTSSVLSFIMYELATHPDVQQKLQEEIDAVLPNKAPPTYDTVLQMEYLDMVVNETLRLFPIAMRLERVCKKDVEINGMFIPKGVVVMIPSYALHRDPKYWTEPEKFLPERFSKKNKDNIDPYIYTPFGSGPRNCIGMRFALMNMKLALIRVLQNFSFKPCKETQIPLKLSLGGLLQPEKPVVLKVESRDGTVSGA
Sequence of human IKCa1 channel (O15554 whole entry): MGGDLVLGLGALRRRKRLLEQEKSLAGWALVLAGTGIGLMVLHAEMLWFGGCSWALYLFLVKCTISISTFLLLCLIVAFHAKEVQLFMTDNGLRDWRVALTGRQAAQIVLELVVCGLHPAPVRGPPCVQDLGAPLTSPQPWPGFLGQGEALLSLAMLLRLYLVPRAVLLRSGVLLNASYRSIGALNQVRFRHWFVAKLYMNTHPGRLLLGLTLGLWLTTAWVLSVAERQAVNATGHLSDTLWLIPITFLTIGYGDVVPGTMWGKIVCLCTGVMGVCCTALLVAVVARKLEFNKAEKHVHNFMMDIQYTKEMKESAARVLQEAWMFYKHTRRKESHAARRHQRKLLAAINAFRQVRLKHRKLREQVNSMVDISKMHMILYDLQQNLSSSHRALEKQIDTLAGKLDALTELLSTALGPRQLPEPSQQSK

SMILES	Kd (human IKCa1 channel) [nM]	inhibition at 30 min, 10 μM (CYP3A4) [%]	further results
Clc1ccccc1C(c1ccccc1)(c1ccccc1)n1ccnc1 [Clotrimazole, reference compound]			inhibition at 30 min, 0.1 μM (CYP3A4): 99%; hydrolysis: % T3 formed ([1]; after 48 h): 22%; hydrolysis: % T3 formed ([1]; after 72 h): 35%; Block of COS-7 (Cl) (COS-7 chloride channel): no effect at 10 μM (n =
OC(c1ccccc1)(c1ccccc1)c1ccccc1Cl [Compound T3, (2-Chlorophenyl)diphenyl methanol]	520	-30.5	melting point: 91 °C
N#CC(c1ccccc1)(c1ccccc1)c1ccccc1Cl [Compound T39, 2-(2-Chlorophenyl)2,2-diphenylacetonitrile]	60	10	IKCa1 inhibition compared with clotrimazole (human IKCa1 channel): more potent inhibitors of IKCa1 channels than clotrimazole
N#CC(c1ccccc1)(c1ccccc1)c1ccccc1F [Compound T40, 2-(2-Fluorophenyl)2,2-diphenylacetonitrile]	60	9	IKCa1 inhibition compared with clotrimazole (human IKCa1 channel): more potent inhibitors of IKCa1 channels than clotrimazole; melting point: 144 °C
FC(F)(F)c1ccccc1C(c1ccccc1)(c1ccccc1)n1cccn1 [Compound T58, 1-{Diphenyl[2-(trifluoromethyl)-phenyl]methyl}-1H-pyrazole]	5000	-26	
Clc1ccccc1C(Nc1nccs1)(c1ccccc1)c1ccccc1 [Compound T66, N-[(2-Chlorophenyl)diphenylmethyl]-N-(1,3-thiazol-2yl)amine]	15000	86.5	

Continued, in another order:

Kd (human IKCa1 channel) [nM]	inhibition at 30 min, 10 μM (CYP3A4) [%]	SMILES	further results
30000	74	Clc1ccccc1C(Nc1ccncc1)(c1ccccc1)c1ccccc1 [Compound T67, N-[(2-Chlorophenyl)diphenylmethyl]-N-(4-pyridyl)amine]	
	4	CCOC(=O)C(C(=O)OCC)C(c1ccccc1)(c1ccccc1)c1ccccc1 [Compound T74]	Kd (human IKCa1 channel; read-out: Kd for block of IKCa1, hIKCa1 in COS-7 cells, reduction of slope conductance at −80 mV, 1 μM free Ca++ in pipette): 600 nM
1200	-54	CC(=O)NC(c1ccccc1)(c1ccccc1)c1ccccc1Cl [Compound T75, N-(2-chlorophenyl)diphenylmethyl acetamide]	
